In the Kinase Knowledgebase extract (Sharma et al. 2016):

Key:
[1] = target: EGFR (human), P00533 [T790M]
[2] = target: EGFR (human), P00533 [WT]
EGFR (human) = EGFR (human) (UniProt P00533); settings: a431
EGFR (human), sequence (P00533 whole entry, looked up): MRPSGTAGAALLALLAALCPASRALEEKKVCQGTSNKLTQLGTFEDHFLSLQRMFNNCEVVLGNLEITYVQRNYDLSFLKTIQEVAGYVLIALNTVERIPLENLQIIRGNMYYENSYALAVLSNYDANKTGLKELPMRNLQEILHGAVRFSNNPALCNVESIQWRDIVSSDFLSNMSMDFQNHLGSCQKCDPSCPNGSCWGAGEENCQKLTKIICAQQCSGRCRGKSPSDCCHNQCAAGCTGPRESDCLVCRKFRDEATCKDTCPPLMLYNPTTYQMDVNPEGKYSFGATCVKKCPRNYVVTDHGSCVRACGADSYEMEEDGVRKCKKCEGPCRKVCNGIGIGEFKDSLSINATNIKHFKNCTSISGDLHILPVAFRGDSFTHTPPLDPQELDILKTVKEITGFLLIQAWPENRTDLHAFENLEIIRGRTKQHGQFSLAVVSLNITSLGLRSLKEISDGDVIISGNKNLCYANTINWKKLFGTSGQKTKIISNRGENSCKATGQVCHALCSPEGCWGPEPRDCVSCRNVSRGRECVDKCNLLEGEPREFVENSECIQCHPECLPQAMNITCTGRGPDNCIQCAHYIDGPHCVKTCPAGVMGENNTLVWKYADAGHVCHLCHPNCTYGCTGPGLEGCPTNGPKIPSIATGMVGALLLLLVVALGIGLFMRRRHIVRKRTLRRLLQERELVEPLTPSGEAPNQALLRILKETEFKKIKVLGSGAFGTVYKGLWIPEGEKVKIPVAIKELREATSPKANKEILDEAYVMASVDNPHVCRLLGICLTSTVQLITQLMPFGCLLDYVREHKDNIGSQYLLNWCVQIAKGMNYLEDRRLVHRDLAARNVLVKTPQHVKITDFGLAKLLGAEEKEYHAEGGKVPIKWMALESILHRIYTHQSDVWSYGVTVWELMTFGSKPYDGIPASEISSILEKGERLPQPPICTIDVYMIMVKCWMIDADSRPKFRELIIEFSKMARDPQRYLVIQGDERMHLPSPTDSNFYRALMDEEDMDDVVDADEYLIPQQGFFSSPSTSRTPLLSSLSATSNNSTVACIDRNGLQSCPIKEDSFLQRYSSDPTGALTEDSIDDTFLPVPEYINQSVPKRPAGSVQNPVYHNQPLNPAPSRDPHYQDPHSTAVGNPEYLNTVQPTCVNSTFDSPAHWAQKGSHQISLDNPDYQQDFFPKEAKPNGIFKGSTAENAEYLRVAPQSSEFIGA

EGFR (human), P00533 [WT], sequence (P00533 whole entry, looked up): as above
EGFR (human), P00533 [T790M], sequence (P00533 whole entry T790M, looked up): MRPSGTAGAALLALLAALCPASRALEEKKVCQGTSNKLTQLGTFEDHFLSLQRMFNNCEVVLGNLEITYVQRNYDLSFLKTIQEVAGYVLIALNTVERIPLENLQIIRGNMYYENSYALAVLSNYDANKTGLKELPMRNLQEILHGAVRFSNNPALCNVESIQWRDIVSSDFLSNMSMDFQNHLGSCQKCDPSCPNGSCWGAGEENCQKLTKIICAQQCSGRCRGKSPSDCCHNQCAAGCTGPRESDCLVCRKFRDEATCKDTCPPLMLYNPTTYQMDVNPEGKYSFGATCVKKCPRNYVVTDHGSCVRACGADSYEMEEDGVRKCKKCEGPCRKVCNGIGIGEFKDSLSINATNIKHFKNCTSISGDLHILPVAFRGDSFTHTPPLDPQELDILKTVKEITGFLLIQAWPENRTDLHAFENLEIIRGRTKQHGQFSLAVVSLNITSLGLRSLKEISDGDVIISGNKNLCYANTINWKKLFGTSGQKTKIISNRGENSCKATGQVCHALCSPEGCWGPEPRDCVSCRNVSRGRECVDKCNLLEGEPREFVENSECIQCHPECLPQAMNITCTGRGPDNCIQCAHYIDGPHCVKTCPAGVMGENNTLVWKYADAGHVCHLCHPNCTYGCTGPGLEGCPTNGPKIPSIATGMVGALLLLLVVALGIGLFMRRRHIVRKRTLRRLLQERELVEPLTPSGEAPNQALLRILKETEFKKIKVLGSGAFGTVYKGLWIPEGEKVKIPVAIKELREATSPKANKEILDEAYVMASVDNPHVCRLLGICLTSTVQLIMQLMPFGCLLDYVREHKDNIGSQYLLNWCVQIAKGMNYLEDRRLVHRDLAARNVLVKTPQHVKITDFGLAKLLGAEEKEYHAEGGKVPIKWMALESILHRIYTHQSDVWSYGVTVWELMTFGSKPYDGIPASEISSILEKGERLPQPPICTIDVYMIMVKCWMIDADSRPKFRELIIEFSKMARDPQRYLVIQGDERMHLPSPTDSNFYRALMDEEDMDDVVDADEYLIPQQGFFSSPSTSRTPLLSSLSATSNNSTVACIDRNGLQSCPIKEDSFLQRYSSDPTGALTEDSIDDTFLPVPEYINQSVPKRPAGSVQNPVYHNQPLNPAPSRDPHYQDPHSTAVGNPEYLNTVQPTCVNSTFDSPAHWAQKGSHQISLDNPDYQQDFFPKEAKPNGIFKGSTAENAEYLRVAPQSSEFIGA

Row | SMILES | IC50 [1] | IC50 [2] | IC50 (EGFR (human))
1 | C=CC(=O)NCc1coc(-c2c(NC(C)=O)ncnc2Nc2ccc(OCc3ccccn3)c(Cl)c2)n1 |  |  | 14.2 nM
2 | C=CC(=O)NCc1coc(-c2c(N)ncnc2Nc2ccc(Oc3cccnc3)c(Cl)c2)n1 | 22.1 nM |  | 
3 | C=CC(=O)NCc1coc(-c2cncnc2Nc2ccc(F)c(Cl)c2)n1 |  |  | 437 nM
4 | C=CC(=O)NCc1cc(-c2cncnc2Nc2ccc(OCc3cccc(F)c3)c(Cl)c2)on1 | 40.8 nM | 10.3 nM | 79 nM
5 | C=CC(=O)NCc1coc(-c2c(N)ncnc2Nc2ccc(Oc3cc(Cl)ccc3Cl)c(Cl)c2)n1 | 3.2 nM | 3.9 nM | 
6 | C=CC(=O)NCc1coc(-c2c(N)ncnc2Nc2ccc(OCc3ccccn3)cc2F)n1 | 171 nM | 8.5 nM | 
7 | CN(C)C/C=C/C(=O)NCc1coc(-c2c(N)ncnc2Nc2ccc(OCc3ccccn3)c(Cl)c2)n1 | 161 nM | 6.1 nM | 29 nM
8 | Nc1ncnc(Nc2ccc(OCc3ccccn3)c(Cl)c2)c1-c1nc(CNC(=O)CCO)co1 |  |  | 137 nM
9 | C=CC(=O)NCc1coc(-c2c(N)ncnc2Nc2ccc(Oc3ccccn3)c(Cl)c2)n1 | 16 nM | 4.2 nM | 
10 | C=C(CN(CC)CC)C(=O)NCc1cc(-c2cncnc2Nc2ccc(OCc3ccccn3)c(Cl)c2)on1 |  |  | 391 nM
11 | C=CC(=O)NCc1coc(-c2c(N)ncnc2Nc2ccc(Oc3ccnn3C)c(Cl)c2)n1 | 125 nM | 8.4 nM | 8.4 nM
12 | Cc1ccc(Oc2ccc(Nc3ncnc(N)c3-c3nc(CNC(=O)/C=C/CN(C)C)co3)cc2C)cn1 |  |  | 326 nM
13 | C=CC(=O)NCc1cc(-c2cncnc2Nc2ccc(Br)c(Cl)c2F)on1 |  |  | 65 nM
14 | Nc1ncnc(Nc2ccc(Oc3ccccc3F)c(Cl)c2)c1-c1nc(CNC(=O)CO)co1 |  |  | 159 nM
15 | C=CC(=O)NCc1coc(-c2c(N)ncnc2Nc2ccc(F)c(C)c2)n1 |  |  | 91.2 nM
16 | C=C(CN(C)C)C(=O)NCc1coc(-c2c(N)ncnc2Nc2ccc(Oc3ccc(C)nc3)c(C)c2)n1 |  |  | 352 nM
17 | C=CC(=O)NCc1coc(-c2c(N)ncnc2Nc2ccc(Oc3ccc(C)nc3)c(C)c2)n1 | 106 nM |  | 
18 | Nc1ncnc(Nc2ccc(Oc3ccccc3F)c(Cl)c2)c1-c1nc(CNC(=O)CCO)co1 |  |  | 826 nM
19 | C=CC(=O)N1CCCC(c2cc(-c3cncnc3Nc3ccc(OCc4cccc(F)c4)c(Cl)c3)on2)C1 (centres undefined) |  |  | 1040 nM
20 | C=CC(=O)NCCc1cc(-c2cncnc2Nc2ccc(OCc3cccc(F)c3)c(Cl)c2)on1 |  |  | 504 nM
21 | C=CC(=O)N1CCCC1c1cc(-c2cncnc2Nc2ccc(OCc3cccc(F)c3)c(Cl)c2)on1 (centres undefined) |  |  | 131 nM
22 | C=C(CN1CCOCC1)C(=O)NCc1cc(-c2cncnc2Nc2ccc(OCc3ccccn3)c(Cl)c2)on1 |  | 21.3 nM | 182 nM
23 | CN(C)C/C=C/C(=O)NCc1coc(-c2c(N)ncnc2Nc2ccc(F)c(Cl)c2)n1 |  |  | 88 nM
24 | C=C(CN(C)C)C(=O)NCc1coc(-c2cncnc2Nc2ccc(OCc3ccccn3)c(Cl)c2)n1 | 3.4 nM | 3.5 nM | 313 nM
25 | C=CC(=O)N(C)Cc1cc(-c2cncnc2Nc2ccc(OCc3cccc(F)c3)c(Cl)c2)on1 |  |  | 68.7 nM
26 | C=CC(=O)NCC1COC(c2c(N)ncnc2Nc2ccc(OCc3ccccn3)c(Cl)c2)=N1 (centres undefined) |  |  | 130 nM

Results, then the molecule that gave them:

Row | IC50 [1] | IC50 [2] | IC50 (EGFR (human)) | SMILES
27 | 13.6 nM | 3.9 nM |  | C=CC(=O)NCc1coc(-c2cncnc2Nc2ccc(OCc3ccccn3)c(Cl)c2)n1
28 |  |  | 111 nM | CN(C)C/C=C/C(=O)NCc1cc(-c2cncnc2Nc2ccc(OCc3cccc(F)c3)c(Cl)c2)on1
29 | 156 nM | 4.5 nM | 119 nM | CN(C)C/C=C/C(=O)NCc1coc(-c2cncnc2Nc2ccc(OCc3ccccn3)c(Cl)c2)n1
30 | 101 nM | 9.1 nM | 2 nM | C=CC(=O)NCc1cc(-c2cncnc2Nc2ccc(OCc3ccccn3)c(Cl)c2)on1
31 | 414 nM | 45.4 nM |  | C=CC(=O)NCc1coc(-c2c(NC(C)=O)ncnc2Nc2ccc(Oc3cc(C(F)(F)F)nn3C)c(Cl)c2)n1
32 |  |  | 289 nM | C=C(CS(C)(=O)=O)C(=O)NCc1cc(-c2cncnc2Nc2ccc(OCc3ccccn3)c(Cl)c2)on1
33 | 3.3 nM | 7 nM |  | C=CC(=O)NCc1coc(-c2c(N)ncnc2Nc2ccc(Oc3ccccc3)c(Cl)c2)n1
34 |  |  | 424 nM | C=CC(=O)NCc1coc(-c2c(N)ncnc2Nc2ccc(Sc3nccn3C)c(Cl)c2)n1
35 | 12.3 nM | 8.8 nM | 1 nM | C=C(CN(C)C)C(=O)NCc1cc(-c2cncnc2Nc2ccc(OCc3ccccn3)c(Cl)c2)on1
36 | 129 nM | 4.9 nM |  | C=CC(=O)NCc1coc(-c2c(N)ncnc2Nc2ccc(OCc3ccccn3)c(F)c2)n1
37 |  |  | 98.6 nM | C=C(CN(C)C)C(=O)NCc1coc(-c2cncnc2Nc2ccc(F)c(Cl)c2)n1
38 | 6.9 nM |  | 26 nM | C=C(CN(C)C)C(=O)NCc1coc(-c2c(N)ncnc2Nc2ccc(F)c(Cl)c2)n1
39 |  |  | 266 nM | C=C(CN1CCCC1)C(=O)NCc1cc(-c2cncnc2Nc2ccc(OCc3ccccn3)c(Cl)c2)on1
40 | 2.5 nM | 3.2 nM | 190 nM | C=C(CN(C)C)C(=O)NCc1coc(-c2c(N)ncnc2Nc2ccc(OCc3ccccn3)c(Cl)c2)n1
41 |  |  | 291 nM | COCCC(=O)NCc1coc(-c2c(N)ncnc2Nc2ccc(Oc3ccccc3F)c(Cl)c2)n1
42 |  |  | 3080 nM | C=CC(=O)N1CCC(c2cc(-c3cncnc3Nc3ccc(OCc4cccc(F)c4)c(Cl)c3)on2)CC1
43 |  |  | 618 nM | O=C(/C=C\CO)NCc1cc(-c2cncnc2Nc2ccc(OCc3ccccn3)c(Cl)c2)on1
44 | 50.1 nM |  |  | C=CC(=O)NCc1coc(-c2c(N)ncnc2Nc2ccc(F)c(Cl)c2)n1
45 |  |  | 309 nM | C=C(CN1CCN(C)CC1)C(=O)NCc1cc(-c2cncnc2Nc2ccc(OCc3ccccn3)c(Cl)c2)on1
46 | 19 nM | 27.7 nM |  | C=CC(=O)NCc1coc(-c2c(N)ncnc2Nc2ccc(OCc3cccc(F)c3)c(Cl)c2)n1
47 |  |  | 78.5 nM | CN(C)C/C=C/C(=O)NCc1coc(-c2c(N)ncnc2Nc2ccc(Oc3ccccc3)c(Cl)c2)n1
48 |  |  | 5 nM | CN(C)C/C=C/C(=O)NCc1cc(-c2cncnc2Nc2ccc(OCc3ccccn3)c(Cl)c2)on1
